# Experiments:
# Type in all cases: in vitro ADME
# [1] = target: T1, CYP1A2 (Rattus norvegicus, UniProt P04799); test: Inhibition of CYP1A2 activity (phenacetin O-deethylation) in RLMs
# T1 construct: tissue Research Institute for Liver Disease Co., Ltd. (Shanghai, China); host or cells: pooled rat liver microsomes
# T1 sequence (P04799 2-513): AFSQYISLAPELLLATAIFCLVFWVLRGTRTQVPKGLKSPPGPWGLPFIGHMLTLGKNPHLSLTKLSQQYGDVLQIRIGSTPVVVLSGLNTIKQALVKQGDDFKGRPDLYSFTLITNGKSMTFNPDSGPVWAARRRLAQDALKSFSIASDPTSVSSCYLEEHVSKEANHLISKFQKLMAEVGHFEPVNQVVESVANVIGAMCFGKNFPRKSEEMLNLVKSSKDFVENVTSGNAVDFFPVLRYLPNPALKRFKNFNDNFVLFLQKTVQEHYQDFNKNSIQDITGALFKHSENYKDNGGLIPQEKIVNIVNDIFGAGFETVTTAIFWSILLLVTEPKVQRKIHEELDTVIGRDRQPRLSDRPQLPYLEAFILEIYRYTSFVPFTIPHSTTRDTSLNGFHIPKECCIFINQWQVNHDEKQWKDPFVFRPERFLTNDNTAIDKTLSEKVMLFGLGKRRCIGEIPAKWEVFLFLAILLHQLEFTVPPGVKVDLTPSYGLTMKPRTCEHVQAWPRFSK
# Protocol: (§1) Samples were prepared in a total volume of 200 μL, containing 0.3 mg/mL protein in human liver microsomes or 15 nM protein in recombinant human supersomes, probe substrates or 50 μM kurarinone, 10 mM MgCl2, 10 mM glucose-6-phosphate, and 1 unit/mL of glucose-6-phosphate dehydrogenase. The reactions were activated by adding NADPH following preincubation at 37°C for 5 min. The reactions were maintained at 37°C for 1 h and terminated by adding 200 μL ice-cold acetonitrile. The supernatant (10 μL) collected from the samples that were centrifuged (20,000 g, 20 min, 4°C) was injected into the HPLC system for analysis. Control incubations devoid of NADPH or kurarinone were performed parallelly to ensure that the produced metabolites were NADPH- or kurarinone-dependent.
# RLMs were used to assess the inhibitory effects of kurarinone (100 μM) on six different human isoforms (CYP1A2, CYP2C9, CYP2D6, CYP2E1, CYP3A4, and CYP2C19). The probe substrates used in this experiment were 40 μM phenacetin for CYP1A2, 10 μM diclofenac for CYP2C9, 25 μM dextromethorphan for CYP2D6, 120 μM chlorzoxazone for CYP2E1, 35 μM testosterone for CYP3A4, and 20 μM (S)-mephenytoin for […] as described earlier. The reaction system has been described in Section 2.3. […] Dixon and Lineweaver–Burk plots were formed to confirm the reversible inhibition type, and a second plot of slopes from the Lineweaver–Burk plot over the concentrations of kurarinone was used to estimate the Ki value. All incubations were performed in triplicates, and mean values were used for analysis.
# [2] = test system: monkey liver microsomes (MLMs); test: Enzyme kinetics of P1 formation from kurarinone in MLMs
# Protocol: as §1
# (§2) Various concentrations of kurarinone (1–200 μM) were incubated with RLMs, MLMs, PLMs, RAMs, CYP1A2, and CYP2D6 to estimate kinetic parameters. The rest of the other conditions remained the same as described in Section 2.3. […] The apparent Km and Vmax values were calculated from nonlinear regression analysis of experimental data according to the Michaelis–Menten equation, and the results were represented graphically by Eadie–Hofstee plots. All incubations were carried out as triplicate independent experiments, and kinetic constants were recorded as mean ± SD.
# [3] = test system: human liver microsomes (HLMs); test: Enzyme kinetics of P1 formation from kurarinone in HLMs
# [4] = test system: minipig liver microsomes (PLMs); test: Enzyme kinetics of P1 formation from kurarinone in PLMs
# Protocol: as §1, §2
# [5] = Prediction of in vivo hepatic clearance in human from HLM kinetics
# Source text: The following equations were utilized to predict the in vivo hepatic clearance of kurarinone in humans and rats.(1) CLint in vitro=Vmax/Km, (2) […], (3) CLH=QH·fu·CLint in/QH+fu·CLint in vivo, where the SF (scaling factor) represents the milligrams of microsomal protein per gram of the liver multiplied by the grams of liver weight; CLint is the intrinsic metabolic clearance; CLH is hepatic clearance; fu is the free fraction in the blood (no data were available for kurarinone; thus, fu was arbitrarily proposed to be 1); and QH is the hepatic blood flow. The CLH of kurarinone was calculated using equations (1)–(3).
smiles,measurement,setting,value
C=C(C)[C@H](CC=C(C)C)Cc1c(O)cc(OC)c2c1O[C@H](c1ccc(O)cc1O)CC2=O [Kurarinone],inhibition type against CYP1A2,[1]; Dixon and Lineweaver–Burk plots,competitive
same,IC50,"[1]; phenacetin O-deethylation, RLMs, read-out: IC50 against CYP1A2",10 µM
same,"inhibition at 1 h, 100 μM","[1]; rat, rat liver microsomes, probe phenacetin 40 μM (O-deethylation), 100 μM kurarinone, 40 μM phenacetin, RLMs",> 90%
same,Ki,"[1]; second plot of slopes from Lineweaver–Burk plots, RLMs",8.13 µM
same,Vmax of P1 formation,[2],4.83 ± 0.14 nmol·min^−1·mg^−1 protein
same,Km,[2]; kurarinone 1–200 μM,21 ± 3.42 µM
same,Vmax of P1 formation,[3],1.56 ± 0.24 nmol·min^−1·mg^−1 protein
same,Km,[3]; kurarinone 1–200 μM,22 ± 4.93 µM
same,Vmax of P1 formation,[4],8.46 ± 0.74 nmol·min^−1·mg^−1 protein
same,Km,[4]; kurarinone 1–200 μM,49.9 ± 7.91 µM
same,percentage of CLH versus hepatic blood flow (QH),[5]; human,81.27%
same,predicted hepatic clearance CLH,"[5]; humans, from HLM kinetic parameters of P1, fu assumed 1",16.82 mL/min/kg
same,clearance category based on CLH projected from in vitro data,"[5]; in humans, high-clearance = >70% liver blood flow",high-clearance
